Values of other authors as cited in patent US20060104967A1, “Method of converting the state of proteins” (priority 2004, published 2006).
*1 amine or outer side, *2 acyl side, *3 side chain or, on linkers, in order; H or OH if unused. Where a SMILES comes first, the peptide text is derived from it. Bridges are numbered along the chain shown (N, C = ends). [ ]: non-standard residue; d: D form. Adda = CO[C@@H](Cc1ccccc1)[C@@H](C)/C=C(C)/C=C/[C@H](N[*:1])[C@H](C)C(=O)[*:2]; dAsp(3S-Me) = C[C@H](C(=O)[*:3])[C@@H](N[*:1])C(=O)[*:2]; d(γGlu) = O=C(O)[C@@H](CCC(=O)[*:2])N[*:1]; NMeDha = C=C(NC)C(=O)O

Biological target: PP2B
Details: read-out: Ki values for PP2B, concentrations of inhibitors where the enzyme activity becomes to half

| SMILES | Ki [µM] |
| --- | --- |
| C=C1C(=O)N[C@H](C)C(=O)N[C@@H](CC(C)C)C(=O)N[C@@H](C(=O)O)[C@H](C)C(=O)N[C@@H](CCCNC(=N)N)C(=O)N[C@@H](/C=C/C(C)=C/[C@H](C)[C@H](Cc2ccccc2)OC)[C@H](C)C(=O)N[C@@H](C(=O)O)CCC(=O)N1C [microcystin LR] (R[Adda][d(γGlu)][NMeDha][dA]L[dAsp(3S-Me)]-OH; lactam N-7) | 200 |
| C=C1[C@@H](O)[C@@H]2O[C@]3(CC[C@H](/C=C/[C@@H](C)[C@@H]4CC(C)=C[C@@]5(O[C@H](C[C@@](C)(O)C(=O)O)CC[C@H]5O)O4)O3)CC[C@H]2O[C@@H]1[C@@H](O)C[C@H](C)[C@H]1O[C@@]2(CCCCO2)CC[C@H]1C [okadaic acid] | 5000 |
